# Laboratory results published in ChEMBL document CHEMBL6087385, “Synthesis and biological evaluation of Ribo 7-N/O/S pyrimidine 9-deaza C-nucleoside analogs as new antiviral agents for inhibiting HCV RNA-dependent RNA polymerases” (Eur J Med Chem, 2024).
# Columns and labels:
# [1] = Metabolic stability in cryopreserved dog hepatocyte assessed as half life in presence of NADPH; assay type: ADME, cell-based, Canis lupus familiaris; conditions: cryopreserved hepatocytes
# [2] = Clearance in female mouse at 1 mg/kg, iv by reverse phase chromatography; assay type: ADME, organism-based; conditions: in vivo
# [3] = Toxicity in Sprague-Dawley rat assessed as weight loss at 250 mg/kg, po administered as single dose and measured after 14 days; assay type: organism-based; conditions: in vivo, 336 h, time 14 day
# [4] = Toxicity in Sprague-Dawley rat assessed as weight loss at 90 mg/kg, po administered as single dose and measured after 14 days; assay type: organism-based; conditions: in vivo, 336 h, time 14 day
# [5] = Cmax in Cynomolgus monkey at 10 mg/kg, po administered for 7 days by reverse phase chromatography; assay type: ADME, organism-based, Macaca fascicularis; conditions: in vivo, time 7 day
# [6] = Toxicity in Sprague-Dawley rat assessed as lethargy at 90 mg/kg, po administered as single dose and measured after 14 days; assay type: organism-based; conditions: in vivo, 336 h, time 14 day
# Hepatitis C virus [7] = assay: Antiviral activity against Hepatitis C virus infected in Ava5 cells assessed as inhibition of viral RNA replication incubated for 72 hrs by RT-PCR analysis; assay type: functional, organism-based, Hepacivirus hominis; conditions: Ava5, 72 h
# [8] = Toxicity in Sprague-Dawley rat assessed as eyes and nares staining at 100 mg/kg, po administered as single dose and measured after 14 days; assay type: organism-based; conditions: in vivo, 336 h, time 14 day
# [9] = Toxicity in Sprague-Dawley rat assessed as lethargy at 100 mg/kg, po administered as single dose and measured after 14 days; assay type: organism-based; conditions: in vivo, 336 h, time 14 day
# [10] = Toxicity in rat assessed as change in body weight at 1 to 9 mg/kg, po; assay type: organism-based; conditions: in vivo, dose 1-9 mg/kg
# [11] = Tmax in Sprague-Dawley rat at 1 mg/kg, iv by reverse phase chromatography; assay type: ADME, organism-based; conditions: in vivo
# [12] = Metabolic stability in Non human primate liver microsome assessed as half life in presence of NADPH; assay type: ADME; conditions: liver microsomes
# [13] = Oral bioavailability in mouse at 5 mg/kg by reverse phase chromatography; assay type: ADME, organism-based; conditions: in vivo
# [14] = Toxicity in Sprague-Dawley rat assessed as anogenital staining at 100 mg/kg, po administered as single dose and measured after 14 days; assay type: organism-based; conditions: in vivo, 336 h, time 14 day
# [15] = Genotoxicity in human Lymphocyte assessed as induction of chromosomal aberration upto 3000 ug/ml; assay type: toxicity, cell-based; conditions: dose < 3000 µg/ml
# [16] = AUC (0 to infinity) in female mouse at 1 mg/kg, iv by reverse phase chromatography; assay type: ADME, organism-based; conditions: in vivo
# [17] = Toxicity in dog assessed as increase in QTc interval at 1 to 5 mg/kg, po measured after 3 hrs; assay type: organism-based, Canis lupus familiaris; conditions: in vivo, dose 1-5 mg/kg
# [18] = Toxicity in Sprague-Dawley rat assessed as piloerection at 150 mg/kg, po administered as single dose and measured after 14 days; assay type: organism-based; conditions: in vivo, 336 h, time 14 day
# [19] = Toxicity in Sprague-Dawley rat assessed as weight loss at 150 mg/kg, po administered as single dose and measured after 14 days; assay type: organism-based; conditions: in vivo, 336 h, time 14 day
# [20] = Tmax in Cynomolgus monkey at 10 mg/kg, po administered for 7 days by reverse phase chromatography; assay type: ADME, organism-based, Macaca fascicularis; conditions: in vivo, time 7 day
# [21] = Toxicity in Sprague-Dawley rat assessed as weight loss at 100 mg/kg, po administered as single dose and measured after 14 days; assay type: organism-based; conditions: in vivo, 336 h, time 14 day
# [22] = Half life in Cynomolgus monkey at 10 mg/kg, po administered for 7 days by reverse phase chromatography; assay type: ADME, organism-based, Macaca fascicularis; conditions: in vivo, time 7 day
# [23] = Oral bioavailability in Sprague-Dawley rat at 5 mg/kg by reverse phase chromatography; assay type: ADME, organism-based; conditions: in vivo
# [24] = Toxicity in Cynomolgus monkey assessed as change in ECG at 100 mg/kg, po administered twice a day; assay type: organism-based, Macaca fascicularis; conditions: in vivo
# [25] = Toxicity in Cynomolgus monkey assessed as change in ECG at 100 to 500 mg/kg, po administered as single dose; assay type: organism-based, Macaca fascicularis; conditions: in vivo, dose 100-500 mg/kg
# [26] = Tmax in Sprague-Dawley rat at 10 mg/kg, po by reverse phase chromatography; assay type: ADME, organism-based; conditions: in vivo
# [27] = Oral bioavailability in Cynomolgus monkey at 10 mg/kg administered for 7 days by reverse phase chromatography; assay type: ADME, organism-based, Macaca fascicularis; conditions: in vivo, time 7 day
# [28] = Toxicity in po dosed rat assessed as no observable adverse effect level; assay type: organism-based; conditions: in vivo
# [29] = Clearance in Cynomolgus monkey at 1 mg/kg, iv by reverse phase chromatography; assay type: ADME, organism-based, Macaca fascicularis; conditions: in vivo
# [30] = Toxicity in rat assessed as mortality at 1 to 9 mg/kg, po; assay type: organism-based; conditions: in vivo, dose 1-9 mg/kg
# [31] = Drug metabolism in human Hepatocyte cells assessed as triphosphate metabolite formation at 10 uM measured upto 24 hrs by HPLC-MS analysis; assay type: ADME, cell-based; conditions: hepatocytes
# [32] = Tmax in Sprague-Dawley rat at 5 mg/kg, po by reverse phase chromatography; assay type: ADME, organism-based; conditions: in vivo
# [33] = Toxicity in Sprague-Dawley rat assessed as diarrhea at 250 mg/kg, po administered as single dose and measured after 14 days; assay type: organism-based; conditions: in vivo, 336 h, time 14 day
# [34] = Toxicity in Cynomolgus monkey assessed as animal death at 100 to 500 mg/kg, po administered as single dose; assay type: organism-based, Macaca fascicularis; conditions: in vivo, dose 100-500 mg/kg
# [35] = Toxicity in Cynomolgus monkey assessed as weight loss at 100 mg/kg, po administered twice a day; assay type: organism-based, Macaca fascicularis; conditions: in vivo
# Hepatitis C virus [36] = assay: Antiviral activity against HCV genotype 1a infected in GLuc-1 cells; assay type: functional, organism-based, Hepacivirus hominis
# [37] = Toxicity in Sprague-Dawley rat assessed as animal death at 90 to 250 mg/kg, po administered as single dose and measured after 14 days; assay type: organism-based; conditions: in vivo, 336 h, dose 90-250 mg/kg, time 14 day
# [38] = Volume of distribution in Sprague-Dawley rat at 1 mg/kg, iv by reverse phase chromatography; assay type: ADME, organism-based; conditions: in vivo
# [39] = Toxicity in Sprague-Dawley rat assessed as eyes and nares staining at 90 mg/kg, po administered as single dose and measured after 14 days; assay type: organism-based; conditions: in vivo, 336 h, time 14 day
# [40] = Toxicity in Sprague-Dawley rat assessed as anogenital staining at 90 mg/kg, po administered as single dose and measured after 14 days; assay type: organism-based; conditions: in vivo, 336 h, time 14 day
# [41] = AUC in female mouse at 5 mg/kg, po by reverse phase chromatography; assay type: ADME, organism-based; conditions: in vivo
# [42] = Cmax in female mouse at 5 mg/kg, po by reverse phase chromatography; assay type: ADME, organism-based; conditions: in vivo
# [43] = Toxicity in Sprague-Dawley rat assessed as lethargy at 250 mg/kg, po administered as single dose and measured after 14 days; assay type: organism-based; conditions: in vivo, 336 h, time 14 day
# [44] = Cmax in Cynomolgus monkey at 1 mg/kg, iv by reverse phase chromatography; assay type: ADME, organism-based, Macaca fascicularis; conditions: in vivo, time 7 day
# [45] = Toxicity in Sprague-Dawley rat assessed as eyes and nares staining at 250 mg/kg, po administered as single dose and measured after 14 days; assay type: organism-based; conditions: in vivo, 336 h, time 14 day
# [46] = Cmax in female mouse at 1 mg/kg, iv by reverse phase chromatography; assay type: ADME, organism-based; conditions: in vivo
# [47] = AUC (0 to infinity) in female mouse at 5 mg/kg, po by reverse phase chromatography; assay type: ADME, organism-based; conditions: in vivo
# Hepatitis C virus [48] = assay: Anti-viral activity against HCV genotype 2a infected in Lunet-CD81 cells; assay type: functional, organism-based, Hepacivirus hominis
# [49] = Drug concentration in Sprague-Dawley rat liver at 2 mg/kg, iv measured upto 24 hrs in presence of ATP by LC-MS/MS analysis; assay type: ADME, organism-based; conditions: read-out: Ct
# [50] = Oral bioavailability in Sprague-Dawley rat at 10 mg/kg by reverse phase chromatography; assay type: ADME, organism-based; conditions: in vivo
# [51] = Metabolic stability in cryopreserved rat hepatocyte assessed as half life in presence of NADPH; assay type: ADME, cell-based; conditions: cryopreserved hepatocytes
compound,measurement,setting,value
C[C@@]1(O)[C@H](O)[C@@H](CO)O[C@H]1c1coc2c(N)ncnc12,half-life,[1],> 60 min
same,clearance,[2],11.6 mL/min/kg
same,Activity,[3],Non-toxic
same,Activity,[4],Toxic
same,Cmax,[5],2510 ng/mL
same,Activity,[6],Non-toxic
same,EC50,Hepatitis C virus [7],6.5 µM
same,Activity,[8],Non-toxic
same,Activity,[9],Non-toxic
same,Activity,[10],Non-toxic
same,Tmax,[11],4.8 min
same,half-life,[12],> 100 min
same,bioavailability,[13],75%
same,Activity,[14],Non-toxic
same,Activity,[15],Non-toxic
same,AUC(0-inf),[16],1440 ng·h/mL
same,Activity,[17],Non-toxic
same,Activity,[18],Toxic
same,Activity,[19],Toxic
same,Tmax,[20],42 min
same,Activity,[21],Non-toxic
same,half-life,[22],1580 min
same,bioavailability,[23],55%
same,Activity,[24],Non-toxic
same,Activity,[25],Non-toxic
same,Tmax,[26],30 min
same,bioavailability,[27],37.6%
same,NOAEL,[28],≤ 9 mg/kg
same,clearance,[29],8.56 mL/min/kg
same,Activity,[30],Non-toxic
same,Drug metabolism,[31],metabolite_detected
same,Tmax,[32],30 min
same,Activity,[33],Non-toxic
same,Activity,[34],Non-toxic
same,Activity,[35],Non-toxic
same,EC50,Hepatitis C virus [36],5.4 µM
same,Activity,[37],Non-toxic
same,Vd,[38],33.2 L/kg
same,Activity,[39],Non-toxic
same,Activity,[40],Non-toxic
same,AUC,[41],3250 ng·h/mL
same,Cmax,[42],1060 ng/mL
same,Activity,[43],Non-toxic
same,Cmax,[44],3200 ng/mL
same,Activity,[45],Non-toxic
same,Cmax,[46],1130 ng/mL
same,AUC(0-inf),[47],4220 ng·h/mL
same,EC50,Hepatitis C virus [48],> 50 µM
same,concentration at 24 h,[49],420 nM
same,bioavailability,[50],71.2%
same,half-life,[51],> 60 min
